From ChEMBL document CHEMBL6087472, “Development and Discovery of a Selective Degrader of Casein Kinases 1 δ/ε” (J Med Chem, 2025)
The source made the active and inactive calls. The rule behind the calls is not given here.

Assays:
[1] = target: T1, von Hippel-Lindau disease tumor suppressor/Casein kinase I isoform alpha (Homo sapiens) (UniProt P48729+P40337); assay: PROTAC activity at VHL/Hibit-fused CK1 alpha in human MV4-11 cells assessed as degradation of CK1-alpha incubated for 6 hrs by Nano-Glo HiBiT assay relative to control; format: cell-based
T1 sequence (P40337 whole entry, looked up, the tested form may be a part, canonical isoform): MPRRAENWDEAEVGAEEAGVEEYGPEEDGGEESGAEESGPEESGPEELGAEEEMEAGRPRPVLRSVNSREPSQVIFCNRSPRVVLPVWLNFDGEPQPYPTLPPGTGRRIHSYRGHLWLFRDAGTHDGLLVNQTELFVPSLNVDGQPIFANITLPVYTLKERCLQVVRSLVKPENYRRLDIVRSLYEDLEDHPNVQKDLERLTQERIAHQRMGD
T1 sequence (P48729 whole entry, looked up, the tested form may be a part, canonical isoform): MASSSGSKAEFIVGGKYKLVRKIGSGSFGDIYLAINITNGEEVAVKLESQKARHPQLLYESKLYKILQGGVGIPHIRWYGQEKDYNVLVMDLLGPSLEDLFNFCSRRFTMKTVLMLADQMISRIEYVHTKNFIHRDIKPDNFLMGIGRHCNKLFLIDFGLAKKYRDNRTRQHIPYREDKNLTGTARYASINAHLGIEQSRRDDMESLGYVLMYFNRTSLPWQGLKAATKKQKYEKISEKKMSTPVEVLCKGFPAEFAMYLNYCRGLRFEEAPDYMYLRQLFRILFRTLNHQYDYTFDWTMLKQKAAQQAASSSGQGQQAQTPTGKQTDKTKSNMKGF

[2] = target: T2, von Hippel-Lindau disease tumor suppressor/Casein kinase I isoform delta (Homo sapiens, UniProt P48730+P40337); assay: PROTAC activity at VHL/Hibit-fused CK1 delta in human MV4-11 cells assessed as degradation of CK1-delta incubated for 6 hrs by Nano-Glo HiBiT assay relative to control; format: cell-based
Target sequence in this assay (P40337 whole entry, looked up, the tested form may be a part, canonical isoform): as the sequence (P40337 whole entry, looked up, the tested form may be a part, canonical isoform) above
Target sequence in this assay (P48730 whole entry, looked up, the tested form may be a part, canonical isoform): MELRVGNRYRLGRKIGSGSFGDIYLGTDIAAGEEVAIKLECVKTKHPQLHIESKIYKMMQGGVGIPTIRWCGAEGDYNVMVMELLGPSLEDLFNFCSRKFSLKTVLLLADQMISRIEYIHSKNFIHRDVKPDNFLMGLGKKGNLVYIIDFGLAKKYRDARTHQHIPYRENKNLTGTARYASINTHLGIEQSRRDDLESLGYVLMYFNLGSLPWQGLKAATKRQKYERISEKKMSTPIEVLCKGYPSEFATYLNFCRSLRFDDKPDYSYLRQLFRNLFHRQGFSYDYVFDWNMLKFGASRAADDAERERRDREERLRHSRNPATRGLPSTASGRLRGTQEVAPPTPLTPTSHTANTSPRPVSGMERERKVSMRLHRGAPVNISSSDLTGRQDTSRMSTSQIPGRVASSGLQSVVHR

[3] = target: T2, von Hippel-Lindau disease tumor suppressor/Casein kinase I isoform delta; assay: PROTAC activity at VHL/full length N-terminal Nano-luc fused CK1 delta (unknown origin) transfected in HEK293T cells incubated for 2 hrs followed by substrate addition by NanoBRET target engagement assay; format: cell-based
Target sequence in this assay (P40337 whole entry, looked up, the tested form may be a part, canonical isoform): as the sequence (P40337 whole entry, looked up, the tested form may be a part, canonical isoform) above
Target sequence in this assay (P48730 whole entry, looked up, the tested form may be a part, canonical isoform): as the sequence (P48730 whole entry, looked up, the tested form may be a part, canonical isoform) above

[4] = target: T3, Casein kinase I isoform epsilon (Homo sapiens, UniProt P49674); assay: Inhibition of CK1 epsilon (unknown origin)
[5] = test system: MV4-11; assay: Cytotoxicity in human MV4-11 cells at <5 uM measured after 60 hrs by alamar blue assay; format: functional, cell-based
[6] = Bioavailability in mouse; format: ADME, organism-based; conditions: in vivo
[7] = target: T4, Protein cereblon/Casein kinase I isoform delta (Homo sapiens, UniProt P48730+Q96SW2); assay: PROTAC activity at CRBN/full length N-terminal Nano-luc fused CK1 delta (unknown origin) transfected in HEK293T cells incubated for 2 hrs followed by substrate addition by NanoBRET target engagement assay; format: cell-based
Target sequence in this assay (P48730 whole entry, the tested form may be a part, canonical isoform): as the sequence (P48730 whole entry, looked up, the tested form may be a part, canonical isoform) above
Target sequence in this assay (Q96SW2 whole entry, the tested form may be a part, canonical isoform): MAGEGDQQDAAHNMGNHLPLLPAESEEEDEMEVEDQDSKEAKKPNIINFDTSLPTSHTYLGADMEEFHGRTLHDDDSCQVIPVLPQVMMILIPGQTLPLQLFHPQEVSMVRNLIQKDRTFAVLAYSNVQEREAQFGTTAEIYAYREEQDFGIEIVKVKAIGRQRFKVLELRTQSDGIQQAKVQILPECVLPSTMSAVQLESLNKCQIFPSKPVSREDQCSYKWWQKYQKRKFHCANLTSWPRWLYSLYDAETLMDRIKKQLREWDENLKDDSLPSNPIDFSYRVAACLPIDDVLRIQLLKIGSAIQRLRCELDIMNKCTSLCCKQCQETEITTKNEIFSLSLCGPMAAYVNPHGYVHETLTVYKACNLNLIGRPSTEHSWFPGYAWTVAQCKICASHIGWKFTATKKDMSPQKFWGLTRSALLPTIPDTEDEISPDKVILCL

[8] = target: Cereblon/Casein kinase I alpha (Homo sapiens) (UniProt P48729+Q96SW2); assay: PROTAC activity at CRBN/Hibit-fused CK1 alpha in human MV4-11 cells assessed as degradation of CK1-alpha incubated for 6 hrs by Nano-Glo HiBiT assay relative to control; format: cell-based
Chain of Cereblon/Casein kinase I alpha (Homo sapiens) (P48729 2-337 limits assumed): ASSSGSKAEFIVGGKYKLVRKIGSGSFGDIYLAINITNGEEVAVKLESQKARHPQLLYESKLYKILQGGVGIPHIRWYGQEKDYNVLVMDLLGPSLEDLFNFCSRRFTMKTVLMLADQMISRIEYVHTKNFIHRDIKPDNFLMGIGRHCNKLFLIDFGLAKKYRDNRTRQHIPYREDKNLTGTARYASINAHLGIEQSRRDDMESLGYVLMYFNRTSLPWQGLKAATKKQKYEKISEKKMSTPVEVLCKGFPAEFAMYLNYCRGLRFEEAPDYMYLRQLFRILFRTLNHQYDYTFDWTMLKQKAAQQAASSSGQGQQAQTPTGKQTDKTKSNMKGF
Chain of Cereblon/Casein kinase I alpha (Homo sapiens) (Q96SW2 whole entry partner, the tested form may be a part, canonical isoform): as the sequence (Q96SW2 whole entry, the tested form may be a part, canonical isoform) above

[9] = target: T4, Protein cereblon/Casein kinase I isoform delta; assay: PROTAC activity at CRBN/Hibit-fused CK1 delta in human MV4-11 cells assessed as degradation of CK1-delta at 10 nM incubated for 6 hrs by Nano-Glo HiBiT assay; format: cell-based
Target sequence in this assay (P48730 whole entry, looked up, the tested form may be a part, canonical isoform): as the sequence (P48730 whole entry, looked up, the tested form may be a part, canonical isoform) above
Target sequence in this assay (Q96SW2 whole entry, looked up, the tested form may be a part, canonical isoform): as the sequence (Q96SW2 whole entry, the tested form may be a part, canonical isoform) above

[10] = target: T4, Protein cereblon/Casein kinase I isoform delta; assay: PROTAC activity at CRBN/Hibit-fused CK1 delta in human MV4-11 cells assessed as degradation of CK1-delta incubated for 6 hrs by Nano-Glo HiBiT assay relative to control; format: cell-based
Target sequence in this assay (P48730 whole entry, looked up, the tested form may be a part, canonical isoform): as the sequence (P48730 whole entry, looked up, the tested form may be a part, canonical isoform) above
Target sequence in this assay (Q96SW2 whole entry, looked up, the tested form may be a part, canonical isoform): as the sequence (Q96SW2 whole entry, the tested form may be a part, canonical isoform) above

[11] = target: T2, von Hippel-Lindau disease tumor suppressor/Casein kinase I isoform delta; assay: PROTAC activity at VHL/CK1 delta in HEK293 cells assessed as induction of degradation of CK1 delta by measuring maximum efficacy at 5 to 10 uM measured after 6 hrs by Western blot analysis relative to control; format: cell-based; conditions: dose 5-10 µM
Target sequence in this assay (P40337 whole entry, looked up, the tested form may be a part, canonical isoform): as the sequence (P40337 whole entry, looked up, the tested form may be a part, canonical isoform) above
Target sequence in this assay (P48730 whole entry, looked up, the tested form may be a part, canonical isoform): as the sequence (P48730 whole entry, looked up, the tested form may be a part, canonical isoform) above

[12] = target: T1, von Hippel-Lindau disease tumor suppressor/Casein kinase I isoform alpha (Homo sapiens); assay: PROTAC activity at VHL/CK1 alpha in HEK293 cells assessed as induction of degradation of CK1 alpha by measuring maximum efficacy at 5 to 10 uM measured after 6 hrs by Western blot analysis relative to control; format: cell-based; conditions: dose 5-10 µM
[13] = target: T2, von Hippel-Lindau disease tumor suppressor/Casein kinase I isoform delta; assay: PROTAC activity at VHL/Hibit-fused CK1 delta in human MV4-11 cells assessed as degradation of CK1-delta incubated for 6 hrs by Nano-Glo HiBiT assay; format: cell-based
[14] = target: T5, von Hippel-Lindau disease tumor suppressor/Casein kinase I isoform epsilon (Homo sapiens) (UniProt P49674+P40337); assay: PROTAC activity at VHL/CK1 epsilon in HEK293 cells assessed as induction of degradation of CK1 epsilon by measuring maximum efficacy at 5 to 10 uM measured after 6 hrs by Western blot analysis relative to control; format: cell-based; conditions: dose 5-10 µM
T5 sequence (P40337 whole entry, looked up, canonical isoform): as the sequence (P40337 whole entry, looked up, the tested form may be a part, canonical isoform) above
T5 sequence (P49674 whole entry, looked up, canonical isoform): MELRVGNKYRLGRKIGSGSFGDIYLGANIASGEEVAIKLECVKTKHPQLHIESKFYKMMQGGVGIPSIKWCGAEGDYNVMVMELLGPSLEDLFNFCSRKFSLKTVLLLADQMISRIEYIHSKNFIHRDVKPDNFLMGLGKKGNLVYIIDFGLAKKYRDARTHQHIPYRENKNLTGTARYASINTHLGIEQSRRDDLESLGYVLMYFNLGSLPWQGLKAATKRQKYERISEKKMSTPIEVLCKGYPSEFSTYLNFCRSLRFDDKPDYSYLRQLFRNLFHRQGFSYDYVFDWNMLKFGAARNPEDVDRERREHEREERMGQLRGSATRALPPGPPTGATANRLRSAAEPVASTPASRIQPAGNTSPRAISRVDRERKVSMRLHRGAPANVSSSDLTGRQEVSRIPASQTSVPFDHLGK

[15] = target: T3, Casein kinase I isoform epsilon; assay: Inhibition of CK1 epsilon in HEK293 cells at 5 to 10 uM measured after 6 hrs by Western blot analysis; format: cell-based; conditions: dose 5-10 µM
[16] = target: Casein kinase I isoform delta (Homo sapiens) (UniProt P48730); assay: Inhibition of CK1 delta in HEK293 cells at 5 to 10 uM measured after 6 hrs by Western blot analysis; format: cell-based; conditions: dose 5-10 µM
[17] = target: T5, von Hippel-Lindau disease tumor suppressor/Casein kinase I isoform epsilon (Homo sapiens); assay: PROTAC activity at VHL/CK1 epsilon in HEK293 cells assessed as induction of degradation of CK1 epsilon at upto 20 uM pretreated with LGK974 followed by compound addition and measured after 6 hrs by Western blot analysis; format: cell-based
[18] = target: T2, von Hippel-Lindau disease tumor suppressor/Casein kinase I isoform delta; assay: PROTAC activity at VHL/CK1 delta in HEK293 cells assessed as dephosphorylation of DVL3 at high concentration pretreated with LGK974 followed by compound addition and measured after 6 hrs by Western blot analysis; format: cell-based
Target sequence in this assay (P40337 whole entry, looked up, the tested form may be a part, canonical isoform): as the sequence (P40337 whole entry, looked up, the tested form may be a part, canonical isoform) above
Target sequence in this assay (P48730 whole entry, looked up, the tested form may be a part, canonical isoform): as the sequence (P48730 whole entry, looked up, the tested form may be a part, canonical isoform) above

[19] = target: T5, von Hippel-Lindau disease tumor suppressor/Casein kinase I isoform epsilon (Homo sapiens); assay: PROTAC activity at VHL/CK1 epsilon in HEK293 cells assessed as induction of degradation of CK1 epsilon at 0.01 to 30 uM by Western blot analysis; format: cell-based; conditions: dose 0.01-30 µM
[20] = test system: MV4-11; assay: Cytotoxicity in human MV4-11 cells at 10 uM measured after 72 hrs by alamar blue assay; format: functional, cell-based
[21] = target: T2, von Hippel-Lindau disease tumor suppressor/Casein kinase I isoform delta; assay: PROTAC activity at VHL/CK1 delta in HEK293 cells assessed as induction of degradation of CK1 delta by Western blot analysis; format: cell-based
[22] = target: T5, von Hippel-Lindau disease tumor suppressor/Casein kinase I isoform epsilon (Homo sapiens); assay: PROTAC activity at VHL/CK1 epsilon in HEK293 cells assessed as dephosphorylation of DVL3 at high concentration pretreated with LGK974 followed by compound addition and measured after 6 hrs by Western blot analysis; format: cell-based
[23] = target: T2, von Hippel-Lindau disease tumor suppressor/Casein kinase I isoform delta; assay: PROTAC activity at VHL/CK1 delta in HEK293 cells assessed as induction of degradation of CK1 delta at upto 20 uM pretreated with LGK974 followed by compound addition and measured after 6 hrs by Western blot analysis; format: cell-based
Target sequence in this assay (P40337 whole entry, looked up, the tested form may be a part, canonical isoform): as the sequence (P40337 whole entry, looked up, the tested form may be a part, canonical isoform) above
Target sequence in this assay (P48730 whole entry, looked up, the tested form may be a part, canonical isoform): as the sequence (P48730 whole entry, looked up, the tested form may be a part, canonical isoform) above

[24] = target: T1, von Hippel-Lindau disease tumor suppressor/Casein kinase I isoform alpha (Homo sapiens); assay: PROTAC activity at VHL/CK1 alpha in HEK293 cells assessed as induction of degradation of CK1 alpha at >10 uM by Western blot analysis; format: cell-based

| SMILES | Emax [1] | Emax [2] | Emax [3] | EC50 [7] | Emax [8] | Emax [10] | also measured |
| --- | --- | --- | --- | --- | --- | --- | --- |
| Cc1ncsc1-c1ccc(CNC(=O)[C@@H]2C[C@@H](O)CN2C(=O)[C@@H](NC(=O)CC2CN(C(=O)CCOCCOCCN3CCC(F)(Cn4cnc(-c5ccc(F)cn5)c4-c4ccnc5[nH]ccc45)CC3)C2)C(C)(C)C)cc1 | < 10% | < 10% | 6.3% | – | – | – | – |
| Cc1ncsc1-c1ccc(CNC(=O)[C@@H]2C[C@@H](O)CN2C(=O)[C@@H](NC(=O)CC2CCN(C(=O)CN3CCC(F)(Cn4cnc(-c5ccc(F)cn5)c4-c4ccnc5[nH]ccc45)CC3)CC2)C(C)(C)C)cc1 | < 10% | 29.1% | 2% | – | – | – | – |
| CN1CCC(F)(Cn2cnc(-c3ccc(F)cn3)c2-c2ccnc3[nH]ccc23)CC1 | – | – | – | – | – | – | IC50 [4]: 27.7 nM; Activity [5]: Active; bioavailability [6]: 0.57% |
| Cc1ncsc1-c1ccc(CNC(=O)[C@@H]2C[C@@H](O)CN2C(=O)[C@@H](NC(=O)CCOCCOCCOCCOCCN2CCC(F)(Cn3cnc(-c4ccc(F)cn4)c3-c3ccnc4[nH]ccc34)CC2)C(C)(C)C)cc1 | < 10% | < 10% | 2.8% | – | – | – | – |
| O=C(CCOCCOCCOCCN1CCC(F)(Cn2cnc(-c3ccc(F)cn3)c2-c2ccnc3[nH]ccc23)CC1)NCCNc1cccc2c1C(=O)N(C1CCC(=O)NC1=O)C2=O (stereo unspecified) | – | – | – | 7.7 nM | 20.2% | 36% | Activity [9]: Active |
| Cc1ncsc1-c1ccc(CNC(=O)[C@@H]2C[C@@H](O)CN2C(=O)[C@@H](NC(=O)CC2CN(C(=O)CN3CCC(F)(Cn4cnc(-c5ccc(F)cn5)c4-c4ccnc5[nH]ccc45)CC3)C2)C(C)(C)C)cc1 | < 10% | 21.7% | 2.4% | – | – | – | – |
| O=C(CCOCCOCCOCCOCCN1CCC(F)(Cn2cnc(-c3ccc(F)cn3)c2-c2ccnc3[nH]ccc23)CC1)NCCNc1cccc2c1C(=O)N(C1CCC(=O)NC1=O)C2=O (stereo unspecified) | – | – | – | 11.2 nM | 11.3% | 40.2% | Activity [9]: Active |
| Cc1ncsc1-c1ccc(CNC(=O)[C@@H]2C[C@@H](O)CN2C(=O)[C@@H](NC(=O)CC2CCN(C(=O)CCOCCOCCOCCN3CCC(F)(Cn4cnc(-c5ccc(F)cn5)c4-c4ccnc5[nH]ccc45)CC3)CC2)C(C)(C)C)cc1 | < 10% | < 10% | 3.2% | – | – | – | – |
| O=C1CCC(N2C(=O)c3cccc(NCCOCCOCCOCCC(=O)N4CCC(F)(Cn5cnc(-c6ccc(F)cn6)c5-c5ccnc6[nH]ccc56)CC4)c3C2=O)C(=O)N1 (stereo unspecified) | – | – | – | 467 nM | 16.1% | 34.4% | – |
| O=C(COc1cccc2c1C(=O)N(C1CCC(=O)NC1=O)C2=O)NCc1ccc(CC(=O)N2CCC(F)(Cn3cnc(-c4ccc(F)cn4)c3-c3ccnc4[nH]ccc34)CC2)cc1 (stereo unspecified) | – | – | – | 4.6 nM | 19.7% | 14.8% | – |
| Cc1ncsc1-c1ccc(CNC(=O)[C@@H]2C[C@@H](O)CN2C(=O)[C@@H](NC(=O)Cc2ccc(CNC(=O)CN3CCC(F)(Cn4cnc(-c5ccc(F)cn5)c4-c4ccnc5[nH]ccc45)CC3)cc2)C(C)(C)C)cc1 | < 10% | 19.1% | 0.5% | – | – | – | – |
| Cc1ncsc1-c1ccc(CNC(=O)[C@@H]2C[C@@H](O)CN2C(=O)[C@@H](NC(=O)CCOCCOCCOCCN2CCC(F)(Cn3cnc(-c4ccc(F)cn4)c3-c3ccnc4[nH]ccc34)CC2)C(C)(C)C)cc1 | 35.9% | 35% | 4.3% | – | – | – | Activity [5]: Active |
| Cc1ncsc1-c1ccc(CNC(=O)[C@@H]2C[C@@H](O)CN2C(=O)[C@@H](NC(=O)CCOCCOCCN2CCC(F)(Cn3cnc(-c4ccc(F)cn4)c3-c3ccnc4[nH]ccc34)CC2)C(C)(C)C)cc1 | 17.3% | 50.8% | 1.8% | – | – | – | Emax [11]: > 50%; Emax [12]: > 50%; DC50 [13]: 9270 nM; Emax [14]: > 50% |
| O=C(COc1cccc2c1C(=O)N(C1CCC(=O)NC1=O)C2=O)NCCCCCC(=O)N1CCC(F)(Cn2cnc(-c3ccc(F)cn3)c2-c2ccnc3[nH]ccc23)CC1 (stereo unspecified) | – | – | – | 9.3 nM | < 10% | 18.2% | – |
| Cc1ncsc1-c1ccc(CNC(=O)[C@@H]2C[C@@H](O)CN2C(=O)[C@@H](NC(=O)CC2CN(C(=O)CCOCCOCCOCCN3CCC(F)(Cn4cnc(-c5ccc(F)cn5)c4-c4ccnc5[nH]ccc45)CC3)C2)C(C)(C)C)cc1 | < 10% | < 10% | 6.4% | – | – | – | – |
| O=C1CCC(N2C(=O)c3cccc(NCCCCCC(=O)N4CCC(F)(Cn5cnc(-c6ccc(F)cn6)c5-c5ccnc6[nH]ccc56)CC4)c3C2=O)C(=O)N1 (stereo unspecified) | – | – | – | 4.3 nM | < 10% | 35% | Activity [9]: Active |
| O=C(CCOCCOCCN1CCC(F)(Cn2cnc(-c3ccc(F)cn3)c2-c2ccnc3[nH]ccc23)CC1)NCCNc1cccc2c1C(=O)N(C1CCC(=O)NC1=O)C2=O (stereo unspecified) | – | – | – | 9.3 nM | 25% | 36.4% | Activity [9]: Active |
| O=C1CCC(N2C(=O)c3cccc(OCCCCCCN4CCC(F)(Cn5cnc(-c6ccc(F)cn6)c5-c5ccnc6[nH]ccc56)CC4)c3C2=O)C(=O)N1 (stereo unspecified) | – | – | – | 1.5 nM | – | 15% | inhibition [15]: Active; inhibition [16]: Active |
| O=C(COc1cccc2c1C(=O)N(C1CCC(=O)NC1=O)C2=O)NCCOCCOCCOCCC(=O)N1CCC(F)(Cn2cnc(-c3ccc(F)cn3)c2-c2ccnc3[nH]ccc23)CC1 (stereo unspecified) | – | – | – | 16 nM | 12.6% | < 10% | – |
| Cc1ncsc1-c1ccc(CNC(=O)[C@@H]2C[C@H](O)CN2C(=O)[C@@H](NC(=O)CCCCCCC(=O)N2CCC(F)(Cn3cnc(-c4ccc(F)cn4)c3-c3ccnc4[nH]ccc34)CC2)C(C)(C)C)cc1 | < 10% | < 10% | 2.4% | – | – | – | Activity [17]: inactive; Activity [18]: Active; Activity [19]: Weak_effect; Activity [20]: Active; Compound Showed Milder Cytotoxic Effect; DC50 [21]: 200 nM; Activity [22]: Active; Activity [23]: inactive; Activity [24]: Weak_effect |
| O=C1CCC(N2C(=O)c3cccc(NCc4ccc(CC(=O)N5CCC(F)(Cn6cnc(-c7ccc(F)cn7)c6-c6ccnc7[nH]ccc67)CC5)cc4)c3C2=O)C(=O)N1 (stereo unspecified) | – | – | – | 9.2 nM | < 10% | 14.4% | – |
